Experimental data as given in US6737383B1, “Herbicidal oxadiazolidines” (priority 1999, dated 2004).

Key:
bedstraw = experiment: Test B pre/postemergence bedstraw; type: in vivo, Galium aparine
Method in brief: (§1)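 Herbicidal effect was estimated by eye on a ten-point control scale after plants spent twelve to sixteen days in a greenhouse following soil or foliar treatment. Foliar sprays targeted plants at one to four leaves; all doses were formulated in a non-phytotoxic solvent with surfactant.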

blackgrass = experiment: Test B pre/postemergence blackgrass; type: in vivo, Alopecurus myosuroides
Method in brief: as §1

surinam grass = experiment: Test B pre/postemergence surinam grass; type: in vivo, Brachiaria decumbens
Method in brief: as §1

cocklebur = experiment: Test B pre/postemergence cocklebur; type: in vivo, Xanthium strumarium
Method in brief: as §1

corn = experiment: Test B pre/postemergence corn; type: in vivo, Zea mays
Method in brief: as §1

morningglory = experiment: Test B pre/postemergence morningglory; type: in vivo, Ipomoea hederacea
Method in brief: as §1

pigweed = experiment: Test B pre/postemergence pigweed; type: in vivo, Amaranthus retroflexus
Method in brief: as §1

rape = experiment: Test B pre/postemergence rape; type: in vivo, Brassica napus
Method in brief: as §1

soybean = experiment: Test B pre/postemergence soybean; type: in vivo, Glycine max
Method in brief: as §1

sugar beet = experiment: Test B pre/postemergence sugar beet; type: in vivo, Beta vulgaris
Method in brief: as §1

velvetleaf = experiment: Test B pre/postemergence velvetleaf; type: in vivo, Abutilon theophrasti
Method in brief: as §1

wild oat = experiment: Test B pre/postemergence wild oat; type: in vivo, Avena fatua
Method in brief: as §1

purple nutsedge = experiment: Test B pre/postemergence purple nutsedge; type: in vivo, Cyperus rotundus
Method in brief: as §1

rice = experiment: Test B flood test rice; type: in vivo, Oryza sativa; settings: Pre-emergence
Method in brief: (§2)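 Each value is a visual injury score relative to controls, with 10 meaning complete control and 0 no effect. Evaluation took place twelve to sixteen days after the 2-leaf-stage plants were treated and kept in the greenhouse.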

smallflower flatsedge = experiment: Test B flood test smallflower flatsedge; type: in vivo, Cyperus difformis; settings: Pre-emergence
Method in brief: as §2

bamyardgrass = experiment: Test B flood test barnyardgrass; type: in vivo, Echinochloa crus-galli; settings: Pre-emergence
Method in brief: as §2

[1] = Preemergence, Rate 62 g/ha, scale of 0 to 10 where 0 is no effect and 10 is complete control
[2] = Preemergence, Rate 250 g/ha, scale of 0 to 10 where 0 is no effect and 10 is complete control
[3] = Preemergence, Rate 500 g/ha, scale of 0 to 10 where 0 is no effect and 10 is complete control
[4] = Rate 62 g/ha, Postemergence, scale 0 to 10, 0 no effect, 10 complete control
[5] = Rate 125 g/ha, Postemergence, scale of 0 to 10 where 0 is no effect and 10 is complete control
[6] = Rate 250 g/ha, Postemergence, scale of 0 to 10 where 0 is no effect and 10 is complete control
[7] = Rate 500 g/ha, Postemergence, scale 0 to 10, 0 no effect, 10 complete control
[8] = Rate 1000 g/ha, scale 0 to 10 (0 no effect, 10 complete control)
[9] = Rate 125 g/ha, flood test species, scale 0 to 10 where 0 is no effect and 10 is complete control
[10] = Rate 250 g/ha, flood-test species, scale 0 to 10, 0 is no effect, 10 is complete control
[11] = Rate 500 g/ha, flood test species, scale 0 to 10 (0 no effect, 10 complete control)

Cc1ccccc1-n1c(=O)on(C(=O)N(c2ccc3ccccc3c2)C(C)C)c1=O [Compound 306]
2: Morningglory plant response rating (morningglory; [4]) | Morningglory plant response rating (morningglory; [5]) | Soybean plant response rating (soybean; [5]) | Plant response rating, Soybean (soybean; [6])
0: Bedstraw plant response rating (bedstraw; [1]) | Bedstraw plant response rating (0 to 10 scale) (bedstraw; Preemergence, Rate 125 g/ha) | Bedstraw plant response rating (bedstraw; [2]) | Bedstraw plant response rating (bedstraw; [3]) | Bedstraw plant response rating (bedstraw; [4]) | Bedstraw plant response rating (bedstraw; [5]) | Plant response rating, Bedstraw (bedstraw; [6]) | Bedstraw plant response rating (bedstraw; [7]) | Blackgrass plant response rating (blackgrass; [1]) | Blackgrass plant response rating (0 to 10 scale) (blackgrass; Preemergence, Rate 125 g/ha) | Blackgrass plant response rating (blackgrass; [2]) | Blackgrass plant response rating (blackgrass; [3]) | Blackgrass plant response rating (blackgrass; [4]) | Blackgrass plant response rating (blackgrass; [5]) | Plant response rating, Blackgrass (blackgrass; [6]) | Blackgrass plant response rating (blackgrass; [7]) | B. signalgrass plant response rating (surinam grass; [1]) | B. signalgrass plant response rating (0 to 10 scale, 0 is no effect, 10 is complete control) (surinam grass; Preemergence, Rate 125 g/ha) | B. signalgrass plant response rating (surinam grass; [2]) | B. signalgrass plant response rating (surinam grass; [3]) | B. signalgrass plant response rating (surinam grass; [4]) | B. signalgrass plant response rating (surinam grass; [5]) | Plant response rating, B. signalgrass (surinam grass; [6]) | B. signalgrass plant response rating (surinam grass; [7]) | Cocklebur plant response rating (cocklebur; [1]) | Cocklebur plant response rating (0 to 10 scale) (cocklebur; Preemergence, Rate 125 g/ha) | Cocklebur plant response rating (cocklebur; [2]) | Cocklebur plant response rating (cocklebur; [3]) | Cocklebur plant response rating (cocklebur; [4]) | Cocklebur plant response rating (cocklebur; [5]) | Plant response rating, Cocklebur (cocklebur; [6]) | Cocklebur plant response rating (cocklebur; [7]) | Corn plant response rating (corn; [1]) | Corn plant response rating (0 to 10 scale) (corn; Preemergence, Rate 125 g/ha) | Corn plant response rating (corn; [2]) | Corn plant response rating (corn; [3]) | Corn plant response rating (corn; [4]) | Corn plant response rating (corn; [5]) | Plant response rating, Corn (corn; [6]) | Corn plant response rating (corn; [7]) | Morningglory plant response rating (morningglory; [1]) | Morningglory plant response rating (0 to 10 scale) (morningglory; Preemergence, Rate 125 g/ha) | Morningglory plant response rating (morningglory; [2]) | Morningglory plant response rating (morningglory; [3]) | Redroot pigweed plant response rating (pigweed; [1]) | Redroot pigweed plant response rating (0 to 10 scale) (pigweed; Preemergence, Rate 125 g/ha) | Redroot pigweed plant response rating (pigweed; [2]) | Redroot pigweed plant response rating (pigweed; [3]) | Redroot pigweed plant response rating (pigweed; [4]) | Redroot pigweed plant response rating (pigweed; [5]) | Plant response rating, Redroot pigweed (pigweed; [6]) | Rape plant response rating (rape; [1]) | Rape plant response rating (0 to 10 scale) (rape; Preemergence, Rate 125 g/ha) | Rape plant response rating (rape; [2]) | Rape plant response rating (rape; [3]) | Rape plant response rating (rape; [4]) | Rape plant response rating (rape; [5]) | Plant response rating, Rape (rape; [6]) | Soybean plant response rating (soybean; [1]) | Soybean plant response rating (0 to 10 scale) (soybean; Preemergence, Rate 125 g/ha) | Soybean plant response rating (soybean; [2]) | Soybean plant response rating (soybean; [3]) | Sugarbeets plant response rating (sugar beet; [1]) | Sugarbeets plant response rating (0 to 10 scale) (sugar beet; Preemergence, Rate 125 g/ha) | Sugarbeets plant response rating (sugar beet; [2]) | Sugarbeets plant response rating (sugar beet; [3]) | Sugarbeets plant response rating (sugar beet; [4]) | Sugarbeets plant response rating (sugar beet; [5]) | Plant response rating, Sugarbeets (sugar beet; [6]) | Velvetleaf plant response rating (velvetleaf; [1]) | Velvetleaf plant response rating (0 to 10 scale) (velvetleaf; Preemergence, Rate 125 g/ha) | Velvetleaf plant response rating (velvetleaf; [2]) | Velvetleaf plant response rating (velvetleaf; [3]) | Velvetleaf plant response rating (velvetleaf; [4]) | Velvetleaf plant response rating (velvetleaf; [5]) | Plant response rating, Velvetleaf (velvetleaf; [6]) | Wild oats plant response rating (wild oat; [1]) | Wild oats plant response rating (0 to 10 scale) (wild oat; Preemergence, Rate 125 g/ha) | Wild oats plant response rating (wild oat; [2]) | Wild oats plant response rating (wild oat; [3]) | Wild oats plant response rating (wild oat; [4]) | Wild oats plant response rating (wild oat; [5]) | Plant response rating, Wild oats (wild oat; [6]) | Nutsedge plant response rating (purple nutsedge; [1]) | Nutsedge plant response rating (0 to 10 scale) (purple nutsedge; Preemergence, Rate 125 g/ha) | Nutsedge plant response rating (purple nutsedge; [2]) | Nutsedge plant response rating (purple nutsedge; [3]) | Nutsedge plant response rating (purple nutsedge; [4]) | Nutsedge plant response rating (purple nutsedge; [5]) | Plant response rating, Nutsedge (purple nutsedge; [6]) | Rice plant response rating (rice; [8]) | Rice plant response rating (rice; [9]) | Rice plant response rating (rice; [10]) | Rice plant response rating (rice; [11]) | S. Flatsedge plant response rating (smallflower flatsedge; [8]) | S. Flatsedge plant response rating (smallflower flatsedge; [9]) | S. Flatsedge plant response rating (smallflower flatsedge; [10]) | S. Flatsedge plant response rating (smallflower flatsedge; [11]) | Barnyardgrass plant response rating (bamyardgrass; [8]) | Barnyardgrass plant response rating (bamyardgrass; [9]) | Barnyardgrass plant response rating (bamyardgrass; [10]) | Barnyardgrass plant response rating (bamyardgrass; [11])
1: Soybean plant response rating (soybean; [4])
